# Measured values reported in US11331289B2, “Antimicrobial composition” (priority 2017, dated 2022).
# Like-named read-outs stand apart in the source and are kept apart here.
# What was measured:
# [1] = test system: Staphylococcus aureus no 16302 and no 16315; test: MIC of Oxyclozanide, broth microdilution method; format: cell-based
# Method: (§1) In this study, 2 Staphylococcus aureus and 2 Staphylococcus pseudintermedius were tested. These strains were chosen after determination of the Minimum Inhibitory Concentration (MIC) of Oxyclozanide using broth microdilution method.
# [2] = test system: Staphylococcus pseudintermedius no 15401 and no 15410; test: MIC of Oxyclozanide, broth microdilution method; format: cell-based
# Method: as §1
# [3] = test system: S. pseudointermedius n°15 410; test: Time-killing curve, broth macrodilution; format: cell-based, Staphylococcus pseudintermedius
# Method: (§2) The time-killing curve is used to determine the bactericidal or bacteriostatic activity of the antibimicrobial substances. Time-killing curves of Oxyclozanide against canine isolates of Staphylococcus aureus and Staphylococcus pseudintermedius were obtained using broth macrodilution method. After contact of different fixed amounts of Oxyclozanide with an inoculum, viable bacteria are counted immediately after contact and after 1, 3, 6 and 24 hours. Counting is performed on agar medium without antimicrobial substance.
# (§3) Results are analyzed by plotting log10 CFU/ml versus time for each tested concentration. Bactericidal activity as defined by 99.9% killing of the inoculum is determined from time-killing curves by noting the presence of a ≥3 log10 decrease in CFU/ml.
# (§4) Bacterial strains were sub-cultured twice from one cryobead on Mueller Hinton agar and incubated at 37° C. for 18-24 hours. From the second subcultures, isolated colonies were transferred into tubes containing 2 ml of Mueller Hinton Broth in order to obtain bacterial suspensions at 10^8 CFU/ml, knowing that an optical density of 0.1 at 620 nm corresponds to bacterial suspension at 10^8 CFU/ml. Then, bacterial suspensions were adjusted between 5 10^7 and 1 10^8 CFU/ml by dilution in Mueller Hinton broth.
# (§5) For each concentration of Oxyclozanide to be tested, 50 μl of working solution concentrated 100× and […] of inoculum were added to 5 ml of Mueller-Hinton broth. Thus, the range of tested concentrations was from 0.125 to 8 μg/ml and the concentration of micro-organism was between 1 10^6 and 2 10^6 CFU/ml.
# (§6) At the same time, a tube without Oxyclozanide was prepared: 50 μl of DMSO and 100 μl of inoculum were added to 5 ml of Mueller-Hinton broth and used as growth control. Tubes were incubated at 36° C. under agitation.
# (§7) The numbers of viable bacteria were determined immediately after contact (TO) and after 1, 3, 6 and 24 h of incubation.
# (§8) At each time, samples of each tube were taken and dilutions were performed in Mueller-Hinton broth. Then, dilutions were spread on Mueller Hinton agar with spiral plater. After 18 h of incubation at 36° C., counting of colonies was performed with automatic colony counter which determine the concentrations of viable bacteria. The technique employed made it possible to quantify bacterial concentrations as low as 20 CFU/ml.
# (§9) Time-killing curves were plotted for each concentration of Oxyclozanide using Microsoft Excel software. The number or surviving bacteria was expressed as log10 CFU/ml. The time-killing curves of each strain represent the decrease in the viable bacteria count as a function of time for the Oxyclozanide concentrations concerned.
# (§10) Bactericidal activity as defined by 99.9% killing of the inoculum is determined from time-killing curves by noting the presence of a ≥3 log10 decrease in CFU/ml.
# [4] = test system: S. pseudointermedius n°15 401; test: Time-killing curve, broth macrodilution; format: cell-based, Staphylococcus pseudintermedius
# Method: as §2, §3, §4, §5, §6, §7, §8, §9, §10
structure (smiles),measurement,setting,value
O=C(Nc1cc(Cl)cc(Cl)c1O)c1c(O)c(Cl)cc(Cl)c1Cl [Oxyclozanide],MIC,"[1]; Staphylococcus aureus, no 16302, read-out: MIC",0.5 µg/mL
same,MIC,[1]; no 16315,0.5 µg/mL
same,MIC,"[2]; Staphylococcus pseudintermedius, no 15401, read-out: MIC",0.125 µg/mL
same,MIC,[2]; no 15410,0.125 µg/mL
same,Bacteria reducing rate,"[3]; 0.125 μg/ml (MIC), 1 h",0.2 Δ log10 CFU/ml
same,Bacteria reducing rate,"[3]; 0.125 μg/ml (MIC), 3 h",1.1 Δ log10 CFU/ml
same,Bacteria reducing rate,"[3]; 0.125 μg/ml (MIC), 6 h",2.3 Δ log10 CFU/ml
same,Bacteria reducing rate,"[3]; 0.125 μg/ml (MIC), 24 h",2.9 Δ log10 CFU/ml
same,Bacteria reducing rate,"[3]; 0.25 μg/ml (2 MIC), 1 h",0.1 Δ log10 CFU/ml
same,Bacteria reducing rate,"[3]; 0.25 μg/ml (2 MIC), 3 h",1.1 Δ log10 CFU/ml
same,Bacteria reducing rate,"[3]; 0.25 μg/ml (2 MIC), 6 h",2.3 Δ log10 CFU/ml
same,Bacteria reducing rate,"[3]; 0.25 μg/ml (2 MIC), 24 h",1.1 Δ log10 CFU/ml
same,Bacteria reducing rate,"[3]; 0.5 μg/ml (4 MIC), 1 h",0.1 Δ log10 CFU/ml
same,Bacteria reducing rate,"[3]; 0.5 μg/ml (4 MIC), 3 h",1.1 Δ log10 CFU/ml
same,Bacteria reducing rate,"[3]; 0.5 μg/ml (4 MIC), 6 h",2.1 Δ log10 CFU/ml
same,Bacteria reducing rate,"[3]; 0.5 μg/ml (4 MIC), 24 h",1.1 Δ log10 CFU/ml
same,Bacteria reducing rate,"[3]; 1 μg/ml (8 MIC), 1 h",0.1 Δ log10 CFU/ml
same,Bacteria reducing rate,"[3]; 1 μg/ml (8 MIC), 3 h",0.1 Δ log10 CFU/ml
same,Bacteria reducing rate,"[3]; 1 μg/ml (8 MIC), 6 h",0.1 Δ log10 CFU/ml
same,Bacteria reducing rate,"[3]; 1 μg/ml (8 MIC), 24 h",0.4 Δ log10 CFU/ml
same,Viable bacteria count,"[3]; 1 μg/ml (8 MIC), 24 h",6.7 Log10 CFU/ml
same,Bacteria reducing rate,"[3]; 2 μg/ml (16 MIC), 1 h",0.0 Δ log10 CFU/ml
same,Bacteria reducing rate,"[3]; 2 μg/ml (16 MIC), 3 h",−0.1 Δ log10 CFU/ml
same,Bacteria reducing rate,"[3]; 2 μg/ml (16 MIC), 6 h",−0.9 Δ log10 CFU/ml
same,Bacteria reducing rate,"[3]; 2 μg/ml (16 MIC), 24 h",−1.7 Δ log10 CFU/ml
same,Viable bacteria count,"[3]; 2 μg/ml (16 MIC), 24 h",4.6 Log10 CFU/ml
same,Bacteria reducing rate,"[3]; 4 μg/ml (32 MIC), 1 h",−0.2 Δ log10 CFU/ml
same,Bacteria reducing rate,"[3]; 4 μg/ml (32 MIC), 3 h",−0.1 Δ log10 CFU/ml
same,Bacteria reducing rate,"[3]; 4 μg/ml (32 MIC), 6 h",−1.2 Δ log10 CFU/ml
same,Bacteria reducing rate,"[3]; 4 μg/ml (32 MIC), 24 h",−3.9 Δ log10 CFU/ml
same,Viable bacteria count,"[3]; 4 μg/ml (32 MIC), 24 h",2.4 Log10 CFU/ml
same,Bacteria reducing rate,"[3]; 8 μg/ml (64 MIC), 1 h",−0.2 Δ log10 CFU/ml
same,Bacteria reducing rate,"[3]; 8 μg/ml (64 MIC), 3 h",−1.6 Δ log10 CFU/ml
same,Viable bacteria count,"[3]; 8 μg/ml (64 MIC), 3 h",4.7 Log10 CFU/ml
same,Bacteria reducing rate,"[3]; 8 μg/ml (64 MIC), 6 h",−3.7 Δ log10 CFU/ml
same,Viable bacteria count,"[3]; 8 μg/ml (64 MIC), 6 h",2.6 Log10 CFU/ml
same,Bacteria reducing rate,"[3]; 8 μg/ml (64 MIC), 24 h",−5.0 Δ log10 CFU/ml
same,Viable bacteria count,"[4]; 0.125 μg/ml (MIC), 0 h",5.9 Log10 CFU/ml
same,Bacteria reducing rate,"[4]; 0.125 μg/ml (MIC), 1 h",0.3 Δ log10 CFU/ml
same,Bacteria reducing rate,"[4]; 0.125 μg/ml (MIC), 3 h",1.2 Δ log10 CFU/ml
same,Bacteria reducing rate,"[4]; 0.125 μg/ml (MIC), 6 h",2.2 Δ log10 CFU/ml
same,Bacteria reducing rate,"[4]; 0.125 μg/ml (MIC), 24 h",2.8 Δ log10 CFU/ml
same,Viable bacteria count,"[4]; 0.125 μg/ml (MIC), 24 h",8.7 Log10 CFU/ml
same,Viable bacteria count,"[4]; 0.25 μg/ml (2 MIC), 0 h",6.0 Log10 CFU/ml
same,Bacteria reducing rate,"[4]; 0.25 μg/ml (2 MIC), 1 h",0.1 Δ log10 CFU/ml
same,Bacteria reducing rate,"[4]; 0.25 μg/ml (2 MIC), 3 h",0.8 Δ log10 CFU/ml
same,Viable bacteria count,"[4]; 0.25 μg/ml (2 MIC), 3 h",6.8 Log10 CFU/ml
same,Bacteria reducing rate,"[4]; 0.25 μg/ml (2 MIC), 6 h",2.2 Δ log10 CFU/ml
same,Bacteria reducing rate,"[4]; 0.25 μg/ml (2 MIC), 24 h",1.3 Δ log10 CFU/ml
same,Viable bacteria count,"[4]; 0.5 μg/ml (4 MIC), 0 h",6.0 Log10 CFU/ml
same,Bacteria reducing rate,"[4]; 0.5 μg/ml (4 MIC), 1 h",0.1 Δ log10 CFU/ml
same,Bacteria reducing rate,"[4]; 0.5 μg/ml (4 MIC), 3 h",0.4 Δ log10 CFU/ml
same,Bacteria reducing rate,"[4]; 0.5 μg/ml (4 MIC), 6 h",1.6 Δ log10 CFU/ml
same,Bacteria reducing rate,"[4]; 0.5 μg/ml (4 MIC), 24 h",1.4 Δ log10 CFU/ml
same,Viable bacteria count,"[4]; 1 μg/ml (8 MIC), 0 h",6.0 Log10 CFU/ml
same,Bacteria reducing rate,"[4]; 1 μg/ml (8 MIC), 1 h",0.1 Δ log10 CFU/ml
same,Bacteria reducing rate,"[4]; 1 μg/ml (8 MIC), 3 h",0.0 Δ log10 CFU/ml
same,Viable bacteria count,"[4]; 1 μg/ml (8 MIC), 3 h",6.0 Log10 CFU/ml
same,Bacteria reducing rate,"[4]; 1 μg/ml (8 MIC), 6 h",0.2 Δ log10 CFU/ml
same,Bacteria reducing rate,"[4]; 1 μg/ml (8 MIC), 24 h",0.7 Δ log10 CFU/ml
same,Viable bacteria count,"[4]; 1 μg/ml (8 MIC), 24 h",6.7 Log10 CFU/ml
same,Viable bacteria count,"[4]; 2 μg/ml (16 MIC), 0 h",6.0 Log10 CFU/ml
same,Bacteria reducing rate,"[4]; 2 μg/ml (16 MIC), 1 h",−0.1 Δ log10 CFU/ml
same,Viable bacteria count,"[4]; 2 μg/ml (16 MIC), 1 h",5.9 Log10 CFU/ml
same,Bacteria reducing rate,"[4]; 2 μg/ml (16 MIC), 3 h",−0.1 Δ log10 CFU/ml
same,Viable bacteria count,"[4]; 2 μg/ml (16 MIC), 3 h",5.9 Log10 CFU/ml
same,Bacteria reducing rate,"[4]; 2 μg/ml (16 MIC), 6 h",0.3 Δ log10 CFU/ml
same,Bacteria reducing rate,"[4]; 2 μg/ml (16 MIC), 24 h",−0.1 Δ log10 CFU/ml
same,Viable bacteria count,"[4]; 2 μg/ml (16 MIC), 24 h",5.9 Log10 CFU/ml
same,Viable bacteria count,"[4]; 4 μg/ml (32 MIC), 0 h",5.9 Log10 CFU/ml
same,Bacteria reducing rate,"[4]; 4 μg/ml (32 MIC), 1 h",0.1 Δ log10 CFU/ml
same,Viable bacteria count,"[4]; 4 μg/ml (32 MIC), 1 h",6.0 Log10 CFU/ml
same,Bacteria reducing rate,"[4]; 4 μg/ml (32 MIC), 3 h",0.0 Δ log10 CFU/ml
same,Viable bacteria count,"[4]; 4 μg/ml (32 MIC), 3 h",5.9 Log10 CFU/ml
same,Bacteria reducing rate,"[4]; 4 μg/ml (32 MIC), 6 h",−0.7 Δ log10 CFU/ml
same,Bacteria reducing rate,"[4]; 4 μg/ml (32 MIC), 24 h",−3.4 Δ log10 CFU/ml
same,Viable bacteria count,"[4]; 4 μg/ml (32 MIC), 24 h",2.5 Log10 CFU/ml
same,Viable bacteria count,"[4]; 8 μg/ml (64 MIC), 0 h",6.0 Log10 CFU/ml
same,Bacteria reducing rate,"[4]; 8 μg/ml (64 MIC), 1 h",−0.4 Δ log10 CFU/ml
same,Viable bacteria count,"[4]; 8 μg/ml (64 MIC), 1 h",5.6 Log10 CFU/ml
same,Bacteria reducing rate,"[4]; 8 μg/ml (64 MIC), 3 h",−2.7 Δ log10 CFU/ml
same,Viable bacteria count,"[4]; 8 μg/ml (64 MIC), 3 h",3.3 Log10 CFU/ml
same,Bacteria reducing rate,"[4]; 8 μg/ml (64 MIC), 6 h",−4.4 Δ log10 CFU/ml
same,Bacteria reducing rate,"[4]; 8 μg/ml (64 MIC), 24 h",−4.7 Δ log10 CFU/ml
